We go through three compounds from ChEMBL document CHEMBL1144792, “Beta-carboline alkaloids from a Korean tunicate Eudistoma sp” (2008).

Test [1] relates to Staphylococcus epidermidis. Description: Antibacterial activity against Staphylococcus epidermidis ATCC 12228 after 24 hrs by 2-fold microtiter broth dilution method. Format: functional. Particulars: ATCC 12228, 24 h. A general note: Dilution methods test growth across graded concentrations, often in twofold steps.
A further test deals with Bacillus subtilis. The experiment in a line: Antibacterial activity against Bacillus subtilis ATCC 6633 after 24 hrs by 2-fold microtiter broth dilution method. Particulars: ATCC 6633, 24 h. Format: functional.
The next test deals with Micrococcus luteus. Description: Antibacterial activity against Micrococcus luteus ATCC 9341 after 24 hrs by 2-fold microtiter broth dilution method. Format: functional, organism-based.
A further test relates to Staphylococcus aureus. Description: Antibacterial activity against Staphylococcus aureus ATCC 6538 after 24 hrs by 2-fold microtiter broth dilution method. The class given is functional, organism-based.
Another test concerns Escherichia coli. Description: Antibacterial activity against Escherichia coli ATCC 11775 after 24 hrs by 2-fold microtiter broth dilution method. Format: functional, organism-based.
A further test has as its system Salmonella typhimurium. The experiment in a line: Antibacterial activity against Salmonella Typhimurium ATCC 14028 after 24 hrs by 2-fold microtiter broth dilution method. Conditions: Salmonella enterica subsp. enterica serovar Typhimurium. The class given is functional, organism-based.
The subject of a further test is Klebsiella pneumoniae. Description: Antibacterial activity against Klebsiella pneumoniae ATCC 4352 after 24 hrs by 2-fold microtiter broth dilution method. Format: functional, organism-based.

Structures are written as SMILES. In brackets after ≈: the same amount, converted by molar mass. Activity calls are given as the source filed them. The calls are words filed in the database; no cut-off is given here.

`O=C(c1ccc(O)cc1)c1nccc2c1[nH]c1ccccc12` [EUDISTOMIN Y1] yielded an MIC in test [1] of 50 µg/mL (≈ 173 µM).
Take `O=C(c1ccc(O)c(Br)c1)c1nccc2c1[nH]c1ccc(Br)cc12` [EUDISTOMIN Y4]: 200 µg/mL (≈ 448 µM) was the least that counted as inhibitory in the test with Bacillus subtilis (MIC).
Turning to `O=C(c1cc(Br)c(O)c(Br)c1)c1nccc2c1[nH]c1ccc(Br)cc12` [EUDISTOMIN Y6], the MIC is 12.5 µg/mL (≈ 23.8 µM) in test [1] and 25 µg/mL (≈ 47.6 µM) in the test on Bacillus subtilis. Besides, the result in the test with Micrococcus luteus, in the test on Staphylococcus aureus, in the test with Escherichia coli, with Salmonella typhimurium and with Klebsiella pneumoniae was inactive.

By MIC is commonly meant the lowest concentration found to suppress growth. A lower MIC goes with a more susceptible organism.
